Assay [1] concerns HL-60. The assay can be described thus: Cytotoxicity against human HL60 cells assessed as growth inhibition at 10 uM after 24 to 48 hrs by MTT assay relative to control. In kind it is functional. The settings on record: read-out: GI.
Assay [2] deals with HL-60. The experiment in a line: Cytotoxicity against human HL60 cells assessed as growth inhibition at 30 uM after 24 to 48 hrs by MTT assay relative to control. Particulars: read-out: GI. In kind it is functional. (Formazan colour is commonly taken as a measure of viable cells.)
In assay [3] the test system is HL-60. The assay can be described thus: Cytotoxicity against human HL60 cells assessed as growth inhibition at 100 uM after 24 to 48 hrs by MTT assay relative to control. In kind it is functional. The settings on record: read-out: GI.
Assay [4] in a line: Cytotoxicity against human MIAPaCa2 cells assessed as growth inhibition at 10 uM after 24 to 48 hrs by MTT assay relative to control. The settings on record: MIA PaCa-2, read-out: GI. In kind it is functional.
Assay [5] is described as follows: Cytotoxicity against human MIAPaCa2 cells assessed as growth inhibition at 30 uM after 24 to 48 hrs by MTT assay relative to control. In kind it is functional. The settings on record: MIA PaCa-2, read-out: GI.
Assay [6] is described as follows: Cytotoxicity against human MIAPaCa2 cells assessed as growth inhibition at 100 uM after 24 to 48 hrs by MTT assay relative to control. In kind it is functional. The settings on record: MIA PaCa-2, read-out: GI.
In assay [7] the test system is HCT-116. The experiment in a line: Cytotoxicity against human HCT116 cells assessed as growth inhibition at 10 uM after 24 to 48 hrs by MTT assay relative to control. In kind it is functional. The settings on record: read-out: GI.
For assay [8], the system named is HCT-116. The assay can be described thus: Cytotoxicity against human HCT116 cells assessed as growth inhibition at 30 uM after 24 to 48 hrs by MTT assay relative to control. In kind it is functional. The settings on record: read-out: GI.
The subject of assay [9] is HCT-116. The experiment in a line: Cytotoxicity against human HCT116 cells assessed as growth inhibition at 100 uM after 24 to 48 hrs by MTT assay relative to control. In kind it is functional. Particulars: read-out: GI.
The test system of assay [10] is HepG2. The assay can be described thus: Cytotoxicity against human HepG2 cells assessed as growth inhibition at 10 uM after 24 to 48 hrs by MTT assay relative to control. Particulars: read-out: GI. In kind it is functional.
The test system of assay [11] is HepG2. The assay can be described thus: Cytotoxicity against human HepG2 cells assessed as growth inhibition at 30 uM after 24 to 48 hrs by MTT assay relative to control. In kind it is functional. Particulars: read-out: GI.
In assay [12] the test system is HepG2. The assay can be described thus: Cytotoxicity against human HepG2 cells assessed as growth inhibition at 100 uM after 24 to 48 hrs by MTT assay relative to control. In kind it is functional. The settings on record: read-out: GI.
For assay [13], the system named is PC-3. The experiment in a line: Cytotoxicity against human PC3 cells assessed as growth inhibition at 10 uM after 24 to 48 hrs by MTT assay relative to control. In kind it is functional. Particulars: read-out: GI.
For assay [14], the system named is PC-3. The experiment in a line: Cytotoxicity against human PC3 cells assessed as growth inhibition at 30 uM after 24 to 48 hrs by MTT assay relative to control. In kind it is functional. Particulars: read-out: GI.
Assay [15] relates to PC-3. The experiment in a line: Cytotoxicity against human PC3 cells assessed as growth inhibition at 100 uM after 24 to 48 hrs by MTT assay relative to control. In kind it is functional. Particulars: read-out: GI.
For assay [16], the system named is HL-60. The experiment in a line: cells. The settings on record: Homo sapiens, HL-60, 48 h.
Description: Cytotoxicity against human HL60 cells assessed as inhibition of cell proliferation after 48 hrs by MTT assay
Assay [17] is described as follows: cells. The settings on record: Homo sapiens, MIA PaCa-2, 48 h.
Description: Cytotoxicity against human MIAPaCa2 cells assessed as inhibition of cell proliferation after 48 hrs by MTT assay
Assay [18] relates to HCT-116. The experiment in a line: cells. The settings on record: Homo sapiens, HCT-116, 48 h.
Description: Cytotoxicity against human HCT116 cells assessed as inhibition of cell proliferation after 48 hrs by MTT assay
Assay [19] deals with HepG2. The assay can be described thus: cells. Particulars: Homo sapiens, HepG2, 48 h.
Description: Cytotoxicity against human HepG2 cells assessed as inhibition of cell proliferation after 48 hrs by MTT assay
The subject of assay [20] is PC-3. The experiment in a line: cells. The settings on record: Homo sapiens, PC-3, 48 h.
Description: Cytotoxicity against human PC3 cells assessed as inhibition of cell proliferation after 48 hrs by MTT assay

One may read the IC50 as the point on the concentration scale where inhibition reaches its midpoint. Take `Nc1ccc(S(=O)(=O)N(c2ccccc2)c2ccnc3ccc(-c4ccc(O)cc4)cc23)cc1`: the inhibition of growth at 10 µM was 66% in assay [1]; 64% in assay [4]; 33% in [7]; 59% in assay [10]; 30% in assay [13]. The inhibition of growth at 30 µM in assay [2] stood at 81%; in [5], 84%; in assay [8], 54%; in assay [11], 70%; in assay [14], 40%. Also, the inhibition of growth at 100 µM in assay [3] came out at 92%; in [6] it was 85%; in assay [9] it was 88%; in [12], 71%; in assay [15] it was 84%. Besides, the IC50 was 5 µM in [16]; 8 µM in [17]; 28 µM in [18]; 9 µM in [19]; 45 µM in assay [20].
As for `O=[N+]([O-])c1ccc(S(=O)(=O)N(c2ccccc2)c2ccnc3ccc(-c4ccc(O)cc4)cc23)cc1`, the inhibition of growth at 10 µM in [1] is 86%; in assay [4], 21%; in [7], 2%; in [10] it was 8%; in [13] it was 4%. Also, the inhibition of growth at 30 µM was determined as 87% in [2]; 59% in assay [5]; 4% in assay [8]; 76% in assay [11]; 30% in [14]. Also, the inhibition of growth at 100 µM in [3] is 89%; in [6], 81%; in assay [9] it was 58%; in assay [12], 84%; in assay [15], 47%. For the same compound, the concentration for half-maximal inhibition (IC50) in assay [16] is < 10 µM; in assay [17], 25 µM; in assay [18], 90 µM; in [19], 22 µM; in assay [20], > 100 µM.
With `COc1ccc(S(=O)(=O)N(c2ccccc2)c2ccnc3ccc(-c4ccc(O)cc4)cc23)cc1`, the inhibition of growth at 10 µM in assay [1] amounted to 63%; in assay [4], 63%; in assay [7] it was 10%; in assay [10] it was 20%; in [13], 15%. The inhibition of growth at 30 µM in assay [2] came to 87%; in assay [5] it was 81%; in assay [8], 39%; in assay [11] it was 78%; in assay [14], 39%. For the same compound, the inhibition of growth at 100 µM worked out at 89% in assay [3]; 86% in [6]; 79% in assay [9]; 86% in [12]; 61% in assay [15]. Moreover, the IC50 was < 10 µM in assay [16]; < 10 µM in assay [17]; 50 µM in assay [18]; 20 µM in assay [19]; 65 µM in assay [20].
For the compound `Oc1ccc(-c2ccc3nccc(Nc4ccccc4)c3c2)cc1`, the inhibition of growth at 10 µM came to 41% in assay [1]; 28% in assay [4]; 8% in assay [7]; 8% in assay [10]; 27% in [13]. Moreover, the inhibition of growth at 30 µM in [2] is 65%; in assay [5], 91%; in assay [8] it was 53%; in [11] it was 53%; in [14], 74%. For the same compound, the inhibition of growth at 100 µM was determined as 82% in [3]; 93% in [6]; 86% in assay [9]; 86% in assay [12]; 90% in assay [15]. Also, the IC50 in assay [16] is 14 µM; in assay [17], 18 µM; in assay [18] it was 27 µM; in assay [19] it was 18 µM; in [20], 21 µM.

Source of the values: ChEMBL document CHEMBL3593172, “4-(N-Phenyl-N'-substituted benzenesulfonyl)-6-(4-hydroxyphenyl)quinolines as inhibitors of mammalian target of rapamycin” (Bioorg Med Chem, 2015).
